Results reported in patent publication US20220144853A1, “IMIDAZOLINE DERIVATIVES AS CXCR4 MODULATORS” (Université de Paris, priority 2019, published 2022).
Structures can show the parent of a compound that is named as a salt.

Columns and labels:
[1] = test system: TNFα production by monocytes (CD14+ cells); experiment: Requirement of CXCR4 (siRNA knockdown or AMD3100) for the effect on TNFα production by monocytes from healthy donors; format: cell-based, human; conditions: AMD3100 20 μM 1 h, example 1 5 μM or example 2 1 μM, R848, FIG. 5B
Experimental: Monocytes were purified from PBMCs by positive selection with the CD14 microbeads (Miltenyi Biotec) and MACS column.
1) The PBMCs used herein were prepared as described in part A “immune cells preparation”, section 1) above. PBMCs were seeded at 2.10^6/mL. […] Cells were then stimulated with the TLR7/8 agonist resiquimod—R848 (Invivogen) at 5 μg/mL. When stated, AMD (20 μM) (Sigma-Aldrich, MO, USA) was added to the cells 1 h before incubation with example 1.
Isolated monocytes were seeded at 10^5 cells/100 μL in 96-well plates and incubated at 37° C. Cyclophilin B (control) and CXCR4 small interfering RNA (siRNA) (Smart Pool, Dharmarcon) was diluted in DOTAP (Roche Applied Sciences). The mix was gently mixed and incubated at room temperature for 15 minutes. After incubation, the mix was added to cells in culture at a final concentration of 160 nM. Finally, cells were incubated at 37° C. for 24 hours before stimulation.
R848-stimulated PBMCs were washed in PBS and then incubated with a viability stain (Zombie-Aqua, Biolegend) for 30 min at 4° C. After washing, the cells were resuspended in PBS containing 2% FCS and 2 mM EDTA and stained with the extracellular mix using APC-anti-BDCA4 (clone 12C2), FITC-anti-CD123 (clone 6H6), PerCP.cy5.5-anti-CD56 (clone 5.1H11), BV421-anti-HLADR (clone L243), PE.cy7-anti-CD19 (clone 4G7), APC-cy.7-anti-CD14 (clone M5E2) all from Biolegend and used at 1/200 and V500-anti-CD3 (BD Bioscience, clone SP34-2, 1/200). For the TNFα intracellular staining a Fixation/Permeabilization Solution Kit (BD Cytofix/Cytoperm) was used according to the manufacturer's protocol. Briefly, the cells were fixed for 10 min at 4° C. with 100 μL of the Fixation/Permeabilization solution then washed and stained in 100 μL of the BD Perm/Wash Buffer containing TNFα-APC (Miltenyi, 1/500) antibody for 1 h at 4° C. Data acquisition was performed on a Canto II flow cytometer using Diva software (BD Biosciences, San Jose, Calif.). FlowJo software (Treestar, Ashland, Oreg.) was used to analyze data.

IL-10 = experiment: Cytokine production by R848-activated PBMCs, LEGENDplex Human Inflammation panel 1: IL-10; format: cell-based; conditions: Homo sapiens, PBMC, PBMCs from 2 healthy donors, R848 overnight
Experimental: 2) The PBMCs used herein were prepared as described in part A “immune cells preparation”, section 2) above. PBMCs were seeded at 4.10^6/mL. […] Cells were then stimulated with the TLR7/8 agonist resiquimod—R848 (Sigma-Aldrich, MO, USA) at 5 μg/mL.
Cytokine expression levels were assessed using LEGENDplex Human inflammation panel 1 Kit (BioLegend, California, USA), which is a bead-based multiplex assay, using fluorescence-encoded beads. […] First, supernatants of R848-stimulated PBMCs were harvested after 24 h of stimulation and frozen at −20° C. for storage. Supernatants were dispensed into a 96-well V-bottom plate. Protocol pursued as per manufacturer recommendations (Manual for BioLegend LEGENDplex, Multi-Analyte Flow Assay Kit, Human Inflammation Panel 1, version 750000393_R01).

[2] = test system: IFN production by activated immune cells (PBMC); experiment: IFN production by R848-activated PBMC from healthy donors, STING-37 reporter cell line; format: cell-based, human; conditions: different concentrations, R848, STING-37 reporter, FIG. 1
Experimental: 1) The blood from healthy donors was obtained from two sources. Either from “Etablissement Français du Sang” (convention #07/CABANEL/106), Paris, France or from the Apheresis and Blood Donation Unit at the Institute of Transfusion Medicine and Immunogenetics (IKT), Ulm, Germany after being approved by the Institutional Review Board at Ulm University.
In vitro experiments were performed using human peripheral blood mononuclear cells (PBMCs) isolated by density centrifugation from peripheral blood leukocyte separation medium (Cambrex, Gaithersburg, Md.).
PBMCs were cultured in RPMI 1640 (Invitrogen, Gaithersburg, Md.) (R10) containing 10% heat-inactivated fetal bovine serum, 100 U/mL Penicilium and 100 μg/mL Streptomycin (1% Pen-Strep) and 1 mM glutamine (Hyclone, Logan, Utah).
1) The PBMCs used herein were prepared as described in part A “immune cells preparation”, section 1) above. PBMCs were seeded at 2.10^6/mL. […]
1) To quantify the secretion of functional IFN, a biological assay based on a stable cell line where luciferase reporter gene is controlled by five Interferon-Stimulated Response Elements (STING37 cell line) was used. […] After 24 h of culture, luciferase activity was determined by adding 50 μL of Bright-Glo reagents (Promega) to culture wells and measuring bioluminescence with a luminometer.

[3] = test system: IFN production by activated PBMCs; experiment: IFN production by R848-activated PBMCs from healthy donors, twINNE reporter cell line; format: cell-based, human; conditions: Homo sapiens, PBMC, means of two results over 2 healthy donors, R848 5 μg/mL, IT1t: mean over all experiments, read-out: IC50 of anti-inflammatory activity (IFN production)
Outline: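 Human PBMCs (4.10^6/mL, RPMI/10% FBS, 37° C) stimulated with R848 at 5 μg/mL; supernatants collected after 24 h. Functional IFN measured on twINNE cells (ISRE-driven luciferase reporter) after 24 h culture by bioluminescence; IC50 from variable-slope dose-response fits.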

Structure (SMILES): CC1(C)CN2C(CSC3=NCC(C)(C)N3)=CSC2=N1 [Example 2, 3-(((5,5-dimethyl-4,5-dihydro-1H-imidazol-2-yl)thio)methyl)-6,6-dimethyl-5,6-dihydroimidazo[2,1-b]thiazole dihydrochloride]
- TNFα production by activated monocytes in the presence of the example after pre-incubation with AMD3100 [1]: restored
- IC50 (IL-10): 9.1 µM
- reduction of IFN production by activated PBMCs [2]: 100%
- IC50 [3]: 10 to 31 µM
